The conditions of this series: Liquid; for Critical pressure: Direct measurement; for Critical temperature: Visual observation in an unstirred cell.

± gives the expanded uncertainty stated by the source.

As for `CCO` [ethanol], the Critical pressure came out at 6135 ± 30 kPa and the Critical temperature was 514.2 ± 2.4 K.
The corresponding values for `COC(C)(C)C` [2-methoxy-2-methylpropane] are 3448 ± 30 kPa and 497 ± 2.4 K.
The corresponding values for `CCCO` [propan-1-ol] are 5172 ± 30 kPa and 537 ± 2.4 K.
Take `CCCCCCC` [heptane]: the Critical pressure came to 2761 ± 30 kPa and the Critical temperature came to 540 ± 2.4 K.
For the molecule `C1CCCCC1` [cyclohexane], the Critical pressure is given as 4110 ± 30 kPa and the Critical temperature was 554.1 ± 2.4 K.
For the molecule `CCCCCC` [hexane], the Critical pressure was determined as 3030 ± 30 kPa and the Critical temperature is recorded as 507.9 ± 2.4 K.
For the molecule `CO` [methanol], the Critical pressure is recorded as 8128 ± 30 kPa and the Critical temperature was determined as 512.3 ± 2.4 K.

These data come from the NIST ThermoML archive (doi:10.1016/j.jct.2013.03.002).
